Measurements from US7238716B2, “Alkanoic acid derivatives process for their production and use thereof” (Takeda Pharmaceuticals Company Limited, priority 2000, dated 2007).

Row | Structure (SMILES) | melting point [°C]
1 | Cc1oc(-c2ccccc2)nc1COc1ccccc1COc1ccc(CC(=O)O)cc1 [Example 69, 2-[4-[2-[(5-methyl-2-phenyl-4-oxazolyl)methoxy]benzyloxy]phenyl]acetic acid] | 173 to 174
2 | COC(=O)Cc1cccc(OCc2ccc(OC)c(OCc3nc(-c4ccccc4)oc3C)c2)c1 [Example 131, methyl 3-[4-methoxy-3-[(2-phenyl-5-methyl-4-oxazolyl)methoxy]benzyloxy]phenylacetate] | 88 to 89
3 | COC(=O)Cc1ccccc1OCc1ccc(OCCc2nc(-c3ccccc3)oc2C)nc1 [Example 118, methyl 2-[2-[[6-[2-(5-methyl-2-phenyl-4-oxazolyl)ethoxy]-3-pyridyl]methoxy]phenyl]acetate] | 78 to 79
4 | Cc1oc(-c2ccccc2)nc1COc1cncc(COc2ccccc2CC(=O)O)c1 [Example 43, 2-[2-[[5-[(5-methyl-2-phenyl-4-oxazolyl)methoxy]-3-pyridyl]methoxy]phenyl]acetic acid] | 207 to 208
5 | CCOc1ccc(OCc2ccccc2OCc2nc(-c3ccccc3)oc2C)cc1CCC(=O)O [Example 35, 3-[2-ethoxy-5-[2-[(5-methyl-2-phenyl-4-oxazolyl)methoxy]benzyloxy]phenyl]propionic acid] | 146 to 147
6 | Cc1oc(-c2ccccc2)nc1COc1ccc(COc2cncc(CC(=O)O)c2)cc1 [Example 38, 2-[5-[4-[(5-methyl-2-phenyl-4-oxazolyl)methoxy]benzyloxy]-3-pyridyl]acetic acid] | 139 to 140
7 | COC(=O)Cc1ccccc1OCc1cncc(OCc2nc(-c3ccccc3)oc2C)c1 [Example 42, methyl 2-[2-[[5-[(5-methyl-2-phenyl-4-oxazolyl)methoxy]-3-pyridyl]methoxy]phenyl]acetate] | 77 to 78
8 | Cc1oc(-c2ccccc2)nc1COc1ccc(COc2cccc(CCC(=O)O)c2)cc1 [Example 3, 3-[3-[4-[(5-methyl-2-phenyl-4-oxazolyl)methoxy]benzyloxy]phenyl]propionic acid] | 157 to 158
9 | Cc1oc(-c2ccccc2)nc1COc1ccc(COc2ccc(-c3ccccc3)cc2CC(=O)O)cc1 [Example 22, 2-[2-[4-[(5-methyl-2-phenyl-4-oxazolyl)methoxy]benzyloxy]-5-phenylphenyl]acetic acid] | 102 to 103
10 | Cc1oc(-c2ccccc2)nc1COc1ccccc1COc1cccc(CC(=O)O)c1 [Example 34, 2-[3-[2-[(5-methyl-2-phenyl-4-oxazolyl)methoxy]benzyloxy]phenyl]acetic acid] | 104 to 105
11 | Cc1oc(-c2ccccc2)nc1COc1ccc(COc2ccc(CC(=O)O)cc2)cc1 [Example 9, 2-[4-[4-[(5-methyl-2-phenyl-4-oxazolyl)methoxy]benzyloxy]phenyl]acetic acid] | 166 to 167
12 | Cc1oc(-c2ccccc2)nc1COc1ccc(CSc2ccc(CCC(=O)O)cc2)cc1 [Example 67, 3-[4-[[4-[(5-methyl-2-phenyl-4-oxazolyl)methoxy]benzyl]sulfanyl]phenyl]propionic acid] | 157 to 158
13 | COC(=O)Cc1cc(C)ccc1OCc1ccc(OCc2nc(-c3ccccc3)oc2C)cc1 [Example 14, methyl 2-[5-methyl-2-[4-[(5-methyl-2-phenyl-4-oxazolyl)methoxy]benzyloxy]phenyl]acetate] | 80 to 81
14 | Cc1oc(-c2ccccc2)nc1COc1cccc(COc2ccc(CC(=O)O)cc2)c1 [Example 68, 2-[4-[3-[(5-methyl-2-phenyl-4-oxazolyl)methoxy]benzyloxy]phenyl]acetic acid] | 179 to 180
15 | Cc1oc(-c2ccccc2)nc1COc1ccc(COc2ncccc2CC(=O)[O-])cc1.[Li+] | 207 to 209
16 | COC(=O)Cc1ccccc1OCc1cc(OCc2nc(-c3ccccc3)sc2C)no1 [Example 113, methyl 2-[2-[[3-[(5-methyl-2-phenyl-4-thiazolyl)methoxy]-5-isoxazolyl]methoxy]phenyl]acetate] | 108 to 109
17 | CCOc1cc(OCc2ccccc2OCc2nc(-c3ccccc3)oc2C)ccc1CCC(=O)O [Example 73, 3-[2-ethoxy-4-[2-[(5-methyl-2-phenyl-4-oxazolyl)methoxy]benzyloxy]phenyl]propionic acid] | 112 to 113
18 | COC(=O)Cc1ccccc1OCc1ccc(N(Cc2nc(-c3ccccc3)oc2C)C(=O)OC(C)(C)C)cc1 [Example 59, methyl 2-[2-[4-[(t-butoxycarbonyl)[(5-methyl-2-phenyl-4-oxazolyl)methyl]amino]benzyloxy]phenyl]acetate] | 85 to 86
19 | COC(=O)Cc1ccccc1OCc1ccc(OCc2nc(-c3ccccc3)sc2C)nc1 [Example 121, methyl 2-[2-[[6-[(5-methyl-2-phenyl-4-thiazolyl)methoxy]-3-pyridyl]methoxy]phenyl]acetate] | 119 to 120
20 | COC(=O)Cc1ccccc1OCc1cc(OCCc2nc(-c3ccccc3)sc2C)no1 [Example 116, methyl 2-[2-[[3-[2-(5-methyl-2-phenyl-4-thiazolyl)ethoxy]-5-isoxazolyl]methoxy]phenyl]acetate] | 80 to 81
21 | COC(=O)Cc1cc(-c2ccccc2)ccc1OCc1ccc(OCc2nc(-c3ccccc3)oc2C)cc1 [Example 21, methyl 2-[2-[4-[(5-methyl-2-phenyl-4-oxazolyl)methoxy]benzyloxy]-5-phenylphenyl]acetate] | 111 to 112
